# Reference: US20250340537A1, “PHARMACEUTICALLY ACTIVE COMPOUNDS, COMPOSITIONS, AND METHODS FOR MODULATING PENDRIN” (ARBORMED Co., Ltd., priority 2022, published 2025)
# Molecular target: T1, H723R-pendrin (Homo sapiens, UniProt O43511, H723R)
# T1 construct: expressed in transfected cells; host or cells: PANC-1
# T1 sequence (O43511 1-780 H723R): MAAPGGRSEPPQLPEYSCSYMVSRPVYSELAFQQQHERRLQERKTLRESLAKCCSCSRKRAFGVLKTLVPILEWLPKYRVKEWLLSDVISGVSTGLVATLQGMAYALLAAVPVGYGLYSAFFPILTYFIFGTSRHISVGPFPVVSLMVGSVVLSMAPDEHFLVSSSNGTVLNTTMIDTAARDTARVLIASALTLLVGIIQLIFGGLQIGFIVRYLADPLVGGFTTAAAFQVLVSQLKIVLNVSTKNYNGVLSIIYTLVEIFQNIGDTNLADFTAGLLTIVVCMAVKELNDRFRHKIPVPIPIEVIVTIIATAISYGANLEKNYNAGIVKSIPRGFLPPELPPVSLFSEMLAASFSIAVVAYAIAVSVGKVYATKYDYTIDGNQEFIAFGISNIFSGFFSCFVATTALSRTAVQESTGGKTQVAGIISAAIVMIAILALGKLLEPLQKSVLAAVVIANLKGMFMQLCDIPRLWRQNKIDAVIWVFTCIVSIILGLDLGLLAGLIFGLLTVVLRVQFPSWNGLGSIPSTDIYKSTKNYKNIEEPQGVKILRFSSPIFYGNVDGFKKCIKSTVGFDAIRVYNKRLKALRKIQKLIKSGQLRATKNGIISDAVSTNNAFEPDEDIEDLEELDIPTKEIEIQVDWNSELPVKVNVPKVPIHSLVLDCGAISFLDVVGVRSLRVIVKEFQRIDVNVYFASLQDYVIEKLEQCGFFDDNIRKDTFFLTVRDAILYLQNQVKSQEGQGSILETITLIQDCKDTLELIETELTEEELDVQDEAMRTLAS
# Assay: YFP fluorescence quenching assay (Cl−/I− exchange activity of pendrin)
# Format: cell-based
# Conditions: PANC-1 cells stably expressing human H723R-pendrin and YFP-F46L/H148Q/I152L; compound incubation 20-24 hours; iodide influx
# Source text: Halide sensor YFP F46L/H148Q/I152L is quenched by halide ion like Iodide. When such YFP is expressed in a cell, it expresses in the cytoplasm.
# To measure H723R-PDS activity, PANC-1 cells were stably transfected with halide sensors YFP-F46L/H148Q/I152L and H723R-PDS which has problems with membrane trafficking due to misfolding.
# If the cell-treated drug is a corrector for H723R-PDS, H723R-PDS will translocate normally to the plasma membrane.
# At this time, when treated with a high-concentration iodide solution outside the cell, iodide enters the cell due to the Cl−/I− exchange activity of pendrin, and the fluorescence of the halide sensor YFP decreases.
# PANC-1 cells were cultured in Dulbecco's Modified Eagle's Medium with 10% fetal bovine serum, 2 mM glutamine, 100 units/ml penicillin and 100 µg/ml streptomycin. For high-throughput screening, PANC-1 cells were stably transfected with human H723R-pendrin and halide sensor YFP-F46L/H148Q/I152L.
# PANC-1 cells expressing human H723R-pendrin and YFP-F46L/H148Q/I152L were plated in 96-well microplates at a density of 2×10^4 cells per well and grown for 20-24 hours at 37° C. (90% humidity 5% CO2). Then these cells were treated with 50 μl growth medium containing test compounds and incubated for 20-24 hours. For YFP quenching assay, each well of the 96-well plate was washed 2 times with 200 μl of PBS, and it was filled with 50 μl of HEPES-buffered solution (140 mM NaCl, 5 mM KCl, 1 mM MgCl2, 1 mM CaCl2, 10 mM D-glucose, 10 mM HEPES; pH 7.4 with NaOH). After 10 minutes of incubation at 37° C., the 96-well plate was moved on the FLUOstar Omega Microplate Reader (BMG Labtech, Ortenberg, Germany) for a fluorescence assay. Each well was assayed individually for H723R-pendrin mediated I^− influx by recording fluorescence (495±15 nm excitation, 520±20 nm emission) every 400 ms for 1 second (baseline). Then, 50 μL of NaI-substituted HEPES-buffered solution (NaI replacing NaCl) was added using a liquid injector at 1 second and YFP fluorescence was recorded every 400 ms for 10 seconds. The initial iodide influx rate was determined from the initial slope of fluorescence by nonlinear regression, after the infusion of iodide.
# It is indicated as EC50 with the following key: A=EC50 less than 5 uM; B=EC50 greater than 5 uM, but less than 10 uM; C=EC50 greater than 10 uM.
row,SMILES,EC50 [µM]
1,COc1ccc(-c2ccnc(C3=C(N)N(c4ccccc4F)CC3=O)n2)cc1OC [Compound 1],> 10
2,COc1ccc(-c2cnc(C3=C(N)N(c4ccccc4F)CC3=O)nc2)cc1OC [Compound 2],> 10
3,COc1ccc(-c2cccc(C3=C(N)N(c4ccccc4F)CC3=O)n2)cc1OC [Compound 3],> 10
4,COc1ccc(-c2cncc(C3=C(N)N(c4ccccc4F)CC3=O)n2)cc1OC [Compound 4],5 to 10
5,COc1ccc(-c2nccc(C3=C(N)N(c4ccccc4F)CC3=O)n2)cc1OC [Compound 5],> 10
6,COc1ccc(-c2cncc(C3=C(N)N(c4ccccc4Cl)CC3=O)n2)cc1OC [Compound 6],5 to 10
7,COc1ccc(-c2cncc(C3=C(N)N(c4ccccc4Cl)CC3=O)c2)cc1OC [Compound 7],> 10
8,NC1=C(c2cncc(-c3ccc4c(c3)OCO4)n2)C(=O)CN1c1ccccc1Cl [Compound 10],> 10
9,NC1=C(c2cncc(-c3ccc4ocnc4c3)n2)C(=O)CN1c1ccccc1Cl [Compound 11],> 10
10,NC1=C(c2cncc(-c3ccc4nccnc4c3)n2)C(=O)CN1c1ccccc1Cl [Compound 12],> 10
11,COc1ccc(-c2cncc(C3=C(N)N(C4CCCC4)CC3=O)n2)cc1OC [Compound 14],5 to 10
12,COc1ccc(-c2cncc(C3=C(N)N(CC4CCCC4)CC3=O)n2)cc1OC [Compound 15],5 to 10
13,COc1cc2c(cc1OC)CN(c1cncc(C3=C(N)N(c4ccccc4Cl)CC3=O)n1)CC2 [Compound 16],> 10
14,COc1ccc(-c2cncc(C3=C(N)N(CCC(F)(F)F)CC3=O)n2)cc1OC [Compound 17],> 10
15,NC1=C(c2cncc(-c3ccc(O)c(O)c3)n2)C(=O)CN1CCC(F)(F)F [Compound 19],> 10
16,COc1ccc(-c2cncc(C3=C(N)N(c4ccccc4Cl)CC3=O)n2)c(OC)c1 [Compound 20],5 to 10
17,COc1cc(-c2cncc(C3=C(N)N(c4ccccc4Cl)CC3=O)n2)cnc1OC [Compound 21],> 10
18,COc1cc(OC)cc(-c2cncc(C3=C(N)N(c4ccccc4Cl)CC3=O)n2)c1 [Compound 22],> 10
19,CNc1ccc(-c2cncc(C3=C(N)N(c4ccccc4Cl)CC3=O)n2)cc1NC [Compound 23],> 10
20,NC1=C(c2cncc(-c3cc(O)cc(O)c3)n2)C(=O)CN1c1ccccc1Cl [Compound 24],> 10

row,SMILES,EC50 [µM]
1,COC(CN1CCN(c2cncc(C3=C(N)N(c4ccccc4Cl)CC3=O)n2)CC1)OC [Compound 25],> 10
2,CNc1ccc(-c2cncc(C3=C(N)N(CC(C)C)CC3=O)n2)cc1NC [Compound 26],> 10
3,CC(C)CN1CC(=O)C(c2cncc(-c3ccc4c(c3)n(C)c(=O)n4C)n2)=C1N [Compound 27],> 10
4,COc1ccc(-c2cncc(C3=C(N)N(c4ccccc4Cl)CC3=O)n2)cc1O [Compound 29],> 10
5,NC1=C(c2cncc(-c3ccc(O)cc3O)n2)C(=O)CN1c1ccccc1Cl [Compound 30],> 10
6,NC1=C(c2cncc(-c3ccc(OC(F)(F)F)c(O)c3)n2)C(=O)CN1c1ccccc1Cl [Compound 31],> 10
7,NC1=C(c2cncc(-c3ccc(O)c(OC(F)(F)F)c3)n2)C(=O)CN1c1ccccc1Cl [Compound 32],5 to 10
8,NC1=C(c2cncc(-c3ccc4nc[nH]c4c3)n2)C(=O)CN1c1ccccc1Cl [Compound 34],> 10
9,NC1=C(c2cnc(-c3ccc(O)c(O)c3)cn2)C(=O)CN1c1ccccc1Cl [Compound 35],> 10
10,COc1ccc(-c2cncc(C3=C(N)N(CC4CCOC4)CC3=O)n2)cc1OC (stereo not drawn) [Compound 36],> 10
11,COc1ccc(-c2cncc(C3=C(N)N(c4ccccc4OC)CC3=O)n2)cc1OC [Compound 37],> 10
12,NC1=C(c2cncc(-c3cnc(O)c(O)c3)n2)C(=O)CN1c1ccccc1Cl [Compound 38],> 10
13,COc1ccc(-c2cncc(C3=C(N)N(CC4CCNC4)CC3=O)n2)cc1OC (stereo not drawn) [Compound 39],> 10
14,NC1=C(c2cncc(-c3ccc(O)c(O)c3)n2)C(=O)CN1CC1CCNC1 (stereo not drawn) [Compound 40],> 10
15,NC1=C(c2cncc(-c3ccc(O)c(O)c3)n2)C(=O)CN1CC1CCOC1 (stereo not drawn) [Compound 41],> 10
16,COc1ccc(-c2cncc(C3=C(N)N(c4ccccc4O)CC3=O)n2)cc1OC [Compound 42],> 10
17,NC1=C(c2cncc(-c3ccc(O)c(O)c3)n2)C(=O)CN1c1ccccc1O [Compound 43],> 10
18,COc1ccc(-c2cncc(C3=C(N)N(CCC4CCCC4)CC3=O)n2)cc1OC [Compound 44],< 5
19,NC1=C(c2cncc(-c3ccc(O)c(O)c3)c2)C(=O)CN1c1ccccc1Cl [Compound 47],> 10
20,COc1ccc(-c2cncc(C3=C(N)N(CC4CCCCC4)CC3=O)n2)cc1OC [Compound 48],> 10

row,SMILES,EC50 [µM]
1,COc1ccc(-c2cncc(C3=C(N)N(CC4CCCC4)CC3=O)c2)cc1OC [Compound 50],> 10
2,NC1=C(c2cncc(-c3ccc(O)c(O)c3)c2)C(=O)CN1CC1CCOC1 (stereo not drawn) [Compound 51],> 10
3,COc1ccc(-c2cncc(C3=C(N)N(CC4CCN(C)C4)CC3=O)n2)cc1OC (stereo not drawn) [Compound 52],> 10
4,CN1CCC(CN2CC(=O)C(c3cncc(-c4ccc(O)c(O)c4)n3)=C2N)C1 (stereo not drawn) [Compound 53],> 10
5,NC1=C(c2cncc(-c3ccc(O)c(O)c3)c2)C(=O)CN1CC1CCCC1 [Compound 54],> 10
6,COc1ccc(-c2cncc(C3=C(N)N(CC4CCNC4)CC3=O)c2)cc1OC (stereo not drawn) [Compound 55],> 10
7,COc1ccc(-c2ccnc(C3=C(N)N(CC4CCCC4)CC3=O)n2)cc1OC [Compound 56],> 10
8,NC1=C(c2ccnc(-c3ccc(O)c(O)c3)n2)C(=O)CN1c1ccccc1F [Compound 57],< 5
9,COc1ccc(-c2ccc(C3=C(N)N(c4ccccc4Cl)CC3=O)cn2)cc1OC [Compound 58],> 10
10,NC1=C(c2ccc(-c3ccc(O)c(O)c3)nc2)C(=O)CN1c1ccccc1Cl [Compound 59],> 10
11,NC1=C(c2cncc(-c3ccc(O)c(O)c3)c2)C(=O)CN1CC1CCNC1 (stereo not drawn) [Compound 60],> 10
12,COc1ccc(-c2cncc(C3=C(N)N(C4CCC(F)(F)C4)CC3=O)n2)cc1OC (stereo not drawn) [Compound 61],> 10
13,COc1ccc(-c2cncc(C3=C(N)N(c4cccc(Cl)c4Cl)CC3=O)n2)cc1OC [Compound 63],5 to 10
14,NC1=C(c2cncc(-c3ccc(O)c(O)c3)n2)C(=O)CN1c1cccc(Cl)c1Cl [Compound 64],5 to 10
15,NC1=C(c2nccc(-c3ccc(O)c(O)c3)n2)C(=O)CN1CC1CCCC1 [Compound 65],5 to 10
16,COc1ccc(-c2cncc(C3=C(N)N(CC4CCC4)CC3=O)n2)cc1OC [Compound 66],5 to 10
17,NC1=C(c2cncc(-c3ccc(O)c(OC4CCC4)c3)n2)C(=O)CN1CC1CCCC1 [Compound 67],> 10
18,COc1ccc(-c2cc(C3=C(N)N(c4ccccc4Cl)CC3=O)ncn2)cc1OC [Compound 68],> 10
19,NC1=C(c2cncc(-c3ccc(O)c(OC4COC4)c3)n2)C(=O)CN1CC1CCCC1 [Compound 70],< 5
20,COc1cc(-c2cncc(C3=C(N)N(CC4CCCC4)CC3=O)c2)ccc1O [Compound 71],> 10
